Laboratory results: patent US20260098026A1, “M4 ACTIVATORS/MODULATORS AND USES THEREOF” (Cerevel Therapeutics, LLC, priority 2022, published 2026)

Key:
Format in all cases: cell-based
[1] = biological target: T1, M3 muscarinic acetylcholine receptor (mAChR) (Homo sapiens, UniProt P20309); assay: FLIPR calcium assay (Fluo 8), M3-overexpressing CHO-K1 cells
T1 construct: expressed in transfected cells; host or cells: CHO-K1
Method in brief: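 CHO-K1 cells overexpressing each human receptor seeded at 15,000 per well, grown overnight at 37° C., 5% CO2, then loaded with Fluo-8 for 30 min. Compounds in HBSS added and calcium response read on FLIPR; EC50 and Emax calculated per subtype.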

M2 mAChR = biological target: T2, M2 mAChR (Homo sapiens, UniProt P08172); assay: cAMP TR-FRET assay with forskolin, M2-overexpressing CHO-K1 cells
T2 construct: expressed in transfected cells; host or cells: CHO-K1
T2 sequence (P08172 1-466): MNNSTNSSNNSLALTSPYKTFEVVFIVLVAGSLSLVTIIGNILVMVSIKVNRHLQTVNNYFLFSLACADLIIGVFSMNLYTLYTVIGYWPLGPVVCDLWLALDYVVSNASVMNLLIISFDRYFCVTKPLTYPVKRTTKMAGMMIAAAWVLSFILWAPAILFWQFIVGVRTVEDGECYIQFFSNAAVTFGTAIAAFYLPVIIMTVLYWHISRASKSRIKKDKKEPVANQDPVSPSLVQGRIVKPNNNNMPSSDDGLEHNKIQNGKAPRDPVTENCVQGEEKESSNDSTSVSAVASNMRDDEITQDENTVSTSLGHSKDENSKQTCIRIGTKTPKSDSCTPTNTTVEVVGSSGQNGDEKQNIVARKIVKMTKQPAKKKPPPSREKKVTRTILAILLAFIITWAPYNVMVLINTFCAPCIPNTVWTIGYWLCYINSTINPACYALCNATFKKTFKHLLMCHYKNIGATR
Text: The M2 and M4 mACh receptors are Gi-coupled receptors which, upon activation, produce a decrease in cAMP. Assays were developed that measured the potency and efficacy of compounds at the M2 or M4 mAChR using M2- or M4-overexpressing CHO-K1 cell lines. Time-resolved fluorescence resonance energy transfer (TR-FRET) technology was used, where signal occurs as a result of transfer of energy if the donor molecule is in close proximity to an acceptor molecule when the molecules have bound to the molecule of interest. The cAMP detection is a competition binding assay, where cAMP produced by cells competes for binding with the labeled donor molecule to the anti-cAMP acceptor antibody. Due to the low basal levels of cAMP in the CHO-K1 cell line, forskolin was used to increase cAMP levels to enable assessment of agonist activity at the mAChR of interest.

M4 mAChR = biological target: T3, M4 mAChR (Homo sapiens, UniProt P08173); assay: cAMP TR-FRET assay with forskolin, M4-overexpressing CHO-K1 cells
T3 construct: expressed in transfected cells; host or cells: CHO-K1
T3 sequence (P08173 1-479): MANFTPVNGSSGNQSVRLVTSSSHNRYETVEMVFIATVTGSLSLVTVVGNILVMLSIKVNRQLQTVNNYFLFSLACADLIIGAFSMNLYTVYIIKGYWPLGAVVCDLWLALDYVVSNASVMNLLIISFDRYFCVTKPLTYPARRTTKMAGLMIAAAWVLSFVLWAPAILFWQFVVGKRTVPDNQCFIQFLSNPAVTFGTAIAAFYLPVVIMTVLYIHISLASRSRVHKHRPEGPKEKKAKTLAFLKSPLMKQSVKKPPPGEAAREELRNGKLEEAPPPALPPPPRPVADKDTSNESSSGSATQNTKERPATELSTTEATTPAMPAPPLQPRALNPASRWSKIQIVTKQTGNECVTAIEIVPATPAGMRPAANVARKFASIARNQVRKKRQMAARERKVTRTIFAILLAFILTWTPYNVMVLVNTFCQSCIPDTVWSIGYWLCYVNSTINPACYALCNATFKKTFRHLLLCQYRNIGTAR
Method in brief: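 CHO-K1 cells overexpressing the receptor were stimulated with forskolin to raise cAMP, so that Gi-mediated agonist decreases could be measured. cAMP was quantified by TR-FRET competition between cellular cAMP and labelled donor for anti-cAMP antibody, giving potency and efficacy.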

T1 sequence (P20309 whole entry): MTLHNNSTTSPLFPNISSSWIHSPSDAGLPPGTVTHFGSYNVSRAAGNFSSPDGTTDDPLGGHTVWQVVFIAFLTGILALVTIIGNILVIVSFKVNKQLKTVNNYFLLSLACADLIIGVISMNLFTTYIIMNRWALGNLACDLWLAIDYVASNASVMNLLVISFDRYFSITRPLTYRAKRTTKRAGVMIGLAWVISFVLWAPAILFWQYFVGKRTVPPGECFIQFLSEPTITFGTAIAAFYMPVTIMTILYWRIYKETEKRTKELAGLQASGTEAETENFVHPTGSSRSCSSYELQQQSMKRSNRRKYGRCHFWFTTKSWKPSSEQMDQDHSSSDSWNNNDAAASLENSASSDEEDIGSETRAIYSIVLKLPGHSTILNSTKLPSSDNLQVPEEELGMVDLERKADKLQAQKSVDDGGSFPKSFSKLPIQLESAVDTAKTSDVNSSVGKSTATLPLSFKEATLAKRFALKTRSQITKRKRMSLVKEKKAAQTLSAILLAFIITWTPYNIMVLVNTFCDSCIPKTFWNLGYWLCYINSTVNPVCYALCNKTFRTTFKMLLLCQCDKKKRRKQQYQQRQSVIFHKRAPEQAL

EC50 ([1]; FLIPR calcium) [µM]	M2 EC50 (nM) (M2 mAChR; cAMP TR-FRET with forskolin)	Emax (M4 mAChR; cAMP TR-FRET with forskolin) [%]	EC50 ([1]; FLIPR) [µM]	Emax (M2 mAChR; cAMP assay) [%]	Emax (M4 mAChR; cAMP assay) [%]	SMILES
> 10	I.A	80 to 100				CCOC(=O)N1CC2(CC[C@@H](N3CCN(c4cc(F)cnc4C4CCOCC4)CC3)C2)C1 [Compound A7, ethyl (6R)-6-[4-(5-fluoro-2-tetrahydropyran-4-yl-3-pyridyl)piperazin-1-yl]-2-azaspiro[3.4]octane-2-carboxylate]
			> 10	< 19	80 to 100	CCOC(=O)N1CC2(CC[C@@H](N3CCN(c4cc(F)cnc4-c4cnn(C(F)F)c4)CC3)C2)C1 [Compound A194]
